Test results published in US10702706B2, “Apparatus, system, and method for generating photo-biologic minimum biofilm inhibitory concentration of infrared light” (NOMIR MEDICAL TECHNOLOGIES, INC., priority 2013, dated 2020).
Where two headings read alike, the source gives them in different places.

Key:
S. aureus = settings: cited from earlier work
MRSA [1] = settings: of 38 patients, topical mupirocin; cited from earlier work
MRSA [2] = assay: In vitro biofilm formation by biofilm producing MRSA strains challenged with Mupirocin, with or without NIMELS infrared light; type: cell-based, methicillin resistant Staphylococcus aureus
Description: The applicant tested the effect in vitro against MRSA with the topical drug Mupirocin.
Accordingly, the PMBIC for MRSA challenged with Mupirocin was established using a straightforward testing protocol.

MRSA [3] = settings: cited from earlier work

**Q.** For `C/C(=C\C(=O)OCCCCCCCCC(=O)O)C[C@@H]1OC[C@H](C[C@@H]2O[C@H]2[C@@H](C)[C@H](C)O)[C@@H](O)[C@H]1O` [Mupirocin], which “effect on planktonic bacteria” value (S. aureus; applied 15 minutes after inoculation (representing planktonic bacteria)) is on record?
**A.** The value was “reduced planktonic bacteria”.

**Q.** And the “effect on biofilm bacteria” value (S. aureus; applied 48 hours after inoculation (representing biofilm bacteria))?
**A.** The value was “decreased efficacy on S. aureus biofilms”.

**Q.** What about the “patients successfully eradicated of their MRSA” value (MRSA [1]) of the same compound?
**A.** Its value is 14.

**Q.** What about the “prevention of biofilm formation” value (MRSA [2]; drug treatment alone, in vitro, biofilm producing MRSA strain (FIG. 9 left panel)) of the same compound?
**A.** The value was “not effective in preventing biofilm formation”.

**Q.** And the “inhibition of biofilm production” value (MRSA [2]; sub-lethal NIMELS infrared light doses (870/930 nm, Table I) applied prior to drug, two different samples of MRSA (FIG. 9 right panel, FIG. 10))?
**A.** The value was “did in fact inhibit biofilm production”.

**Q.** What about the MIC (MRSA [3]; 17 failed samples that were biofilm producing strains) of the same compound?
**A.** The MIC was ≤ 2 µg/mL.

**Q.** And the MIC (MRSA [3]; MRSA samples of the 14 patients with successful eradication)?
**A.** Its MIC is ≤ 1 µg/mL.
